One may read the IC50 as the concentration that inhibits the measured activity by half. The term EC50 denotes the concentration at which the effect is half-maximal.

One assay has as its target Cap-dependant Endonuclease (CEN) (RNP fraction, PB1-PB2-PA complex) (Influenza A virus (strain A/Wilson-Smith/1933 H1N1) (Influenza A virus (strain A/WS/1933 H1N1)), UniProt P15659).
Test: not given
The class given is biochemical, influenza A/WSN/33 virus.
Settings: not given
`C[C@@H](N1CN([C@@H]2c3ccccc3SCc3c2ccc(F)c3F)n2cc(Cl)c(=O)c(O)c2C1=O)C(F)(F)F` [compound 716]: the IC50 was 5.54 nM.

Still in this assay, the particulars now being: parent compounds (Reference examples); room temperature, 60 minutes.
As to `CCc1cccc2c1[C@H](N1CN([C@H](C)C(F)(F)F)C(=O)c3c(O)c(=O)ccn31)c1ccccc1SC2` [compound 731], the IC50 came to 5.76 nM.

In the case of `C[C@@H](N1CN([C@@H]2c3ccccc3CCc3c(Cl)cccc32)n2ccc(=O)c(O)c2C1=O)C(F)(F)F` [Reference example 641], the concentration for half-maximal inhibition (IC50) is 46 nM.

Take `C[C@@H](N1CN(C2c3ccc(F)cc3CCc3cc(F)ccc32)n2ccc(=O)c(O)c2C1=O)C(F)(F)F` [Reference example 640]: the IC50 stood at 57 nM.

Turning to `Cc1cccc2c1SCc1c(F)cccc1[C@@H]2N1CN([C@H](C)C(F)(F)F)C(=O)c2c(O)c(=O)ccn21` [Reference example 623], the 50% inhibitory concentration (IC50) came out at 21 nM.

For the compound `C[C@@H](N1CN([C@H]2c3ccccc3CCc3c(F)cccc32)n2ccc(=O)c(O)c2C1=O)C(F)(F)F` [Reference example 628], the half-inhibitory concentration (IC50) was determined as 43 nM.

As for `CCN(CC)CCN1CN(C2c3ccccc3CCc3ccccc32)n2ccc(=O)c(O)c2C1=O` [Reference example 490], the half-inhibitory concentration (IC50) is 212 nM.

Take `O=C1c2c(O)c(=O)ccn2N(C2c3ccccc3CSc3ccccc32)CN1C1COC1` (centres unmarked) [Reference example 609]: the 50% inhibitory concentration (IC50) stood at 53 nM.

The subject of a further assay is influenza virus. Description: microbe, parasite or virus in culture. Particulars: parent compounds (Reference examples); MDBK or MDCK cells, 3 days, WST-8; read-out: CPE EC50. The class given is cell-based.
Turning to `C[C@@H](N1CN([C@@H]2c3ccccc3CSc3ccccc32)n2ccc(=O)c(O)c2C1=O)C(F)(F)F` [Reference example 414], the EC50 was determined as 131 nM.

Staying with this assay, now noted: unidentified influenza virus, 72 h, read-out: CPE EC50, parent compounds (Reference examples); MDBK or MDCK cells, 3 days, WST-8.
For the compound `C[C@@H](N1CN([C@H]2c3ccc(F)cc3CSc3ccccc32)n2ccc(=O)c(O)c2C1=O)C(F)(F)F` [Reference example 454], the EC50 was 4 nM.

Take `CCc1cccc2c1[C@H](N1CN([C@H](C)C(F)(F)F)C(=O)c3c(O)c(=O)ccn31)c1ccccc1SC2` [compound 731]: the concentration for a half-maximal effect (EC50) amounted to 2.08 nM.

`C[C@@H](N1CN([C@H]2c3ccccc3CSc3c(C#N)cccc32)n2ccc(=O)c(O)c2C1=O)C(F)(F)F` [Reference example 618]: the concentration for a half-maximal effect (EC50) came to 18 nM.

As for `COCCN1C[C@H](C(c2ccccc2)c2ccccc2)n2cc(CO)c(=O)c(O)c2C1=O` [Example 48], the 50% effective concentration (EC50) worked out at 10900 nM.

As for `C[C@@H](N1CN([C@@H]2c3ccccc3CCc3c(Cl)cccc32)n2ccc(=O)c(O)c2C1=O)C(F)(F)F` [Reference example 641], the concentration for a half-maximal effect (EC50) came out at 23 nM.

Consider `C[C@@H](N1CN(C2c3ccc(F)cc3CCc3cc(F)ccc32)n2ccc(=O)c(O)c2C1=O)C(F)(F)F` [Reference example 640], for which the concentration for a half-maximal effect (EC50) was 6 nM.

For `Cc1cccc2c1SCc1c(F)cccc1[C@@H]2N1CN([C@H](C)C(F)(F)F)C(=O)c2c(O)c(=O)ccn21` [Reference example 623], the concentration for a half-maximal effect (EC50) stood at 3 nM.

For the compound `C[C@@H](N1CN([C@@H]2c3ccccc3SCc3c2ccc(F)c3F)n2cc(Cl)c(=O)c(O)c2C1=O)C(F)(F)F` [compound 716], the 50% effective concentration (EC50) was 5.6 nM.

Take `C[C@@H](N1CN([C@H]2c3ccccc3CCc3c(F)cccc32)n2ccc(=O)c(O)c2C1=O)C(F)(F)F` [Reference example 628]: the 50% effective concentration (EC50) came to 13 nM.

Take `CCN(CC)CCN1CN(C2c3ccccc3CCc3ccccc32)n2ccc(=O)c(O)c2C1=O` [Reference example 490]: the EC50 amounted to 468 nM.

Consider `O=C1c2c(O)c(=O)ccn2N(C2c3ccccc3CSc3ccccc32)CN1C1COC1` (centres unmarked) [Reference example 609], for which the EC50 amounted to 25 nM.

Consider `O=C(O)c1cn2c(c(O)c1=O)C(=O)N1CCCO[C@H]1[C@@H]2C(c1ccccc1)c1ccccc1` [Example 175], for which the EC50 stood at 102 nM.

Take `CN(CCN1CN(C(c2ccccc2)c2ccccc2)n2ccc(=O)c(O)c2C1=O)S(=O)(=O)c1ccccc1` [Example 138]: the EC50 is 100 nM.

Regarding `C[C@@H](N1CN([C@H]2c3cc(Cl)ccc3CSc3ccccc32)n2ccc(=O)c(O)c2C1=O)C(F)(F)F` [Reference example 443], the half-maximal effective concentration (EC50) was 4 nM.

Regarding `COCC(COC)N1CN(C2c3ccccc3CSc3c(F)cccc32)n2ccc(=O)c(O)c2C1=O` (centres unmarked) [Reference example 339], the EC50 was 40 nM.

With `C[C@@H](N1CN([C@H]2c3cccc(C(F)(F)F)c3CSc3c(F)cccc32)n2ccc(=O)c(O)c2C1=O)C(F)(F)F` [Reference example 660], the 50% effective concentration (EC50) is 11 nM.

Take `C[C@@H](N1CN(C(c2ccccc2)c2ccccc2Cl)n2ccc(=O)c(O)c2C1=O)C(F)(F)F` (some centres unmarked) [Reference example 243]: the EC50 was found to be 20 nM.

With `CCN(CC)CCC1N(C(C)C)C(=O)c2c(O)c(=O)ccn2N1C1c2ccccc2CCc2ccccc21` (centres unmarked) [Reference example 538], the EC50 amounted to 30 nM.

On to `CC(=O)N(C)CC1N(C(C)C)C(=O)c2c(O)c(=O)ccn2N1C1c2ccccc2CCc2ccccc21` (centres unmarked) [Reference example 525], for which the concentration giving a half-maximal response (EC50) worked out at 90 nM.

`CCOC(=O)CCN1CN(C(c2ccccc2)c2ccccc2)n2ccc(=O)c(O)c2C1=O` [Example 128]: the EC50 amounted to 416 nM.

With `CC(C)N1CN(C2c3ccccc3CSc3c(Cl)cccc32)n2ccc(=O)c(O)c2C1=O` (centres unmarked) [Reference example 326], the EC50 stood at 5 nM.

Turning to `O=C(NCCN1CN(C(c2ccccc2)c2ccccc2)n2ccc(=O)c(O)c2C1=O)c1ccccc1` [Example 150], the EC50 amounted to 553 nM.

Turning to `C[C@@H](N1CN([C@H]2c3cc(F)ccc3CSc3ccccc32)n2ccc(=O)c(O)c2C1=O)C(F)(F)F` [Reference example 441], the concentration giving a half-maximal response (EC50) was determined as 5 nM.

As for `O=C1c2c(O)c(=O)ccn2N(C2c3ccccc3CSc3c(Cl)cccc32)CN1[C@@H]1C[C@@H]1F` (some centres unmarked) [Reference example 332], the EC50 amounted to 20 nM.

Regarding `C[C@@H](N1CN([C@H]2c3ccccc3CCc3c(Cl)cccc32)n2ccc(=O)c(O)c2C1=O)C(F)(F)F` [Reference example 639], the concentration giving a half-maximal response (EC50) came to 17 nM.

Turning to `COCCN1CN(C2c3ccccc3COc3c(Cl)cccc32)n2ccc(=O)c(O)c2C1=O` (centres unmarked) [Reference example 396], the EC50 was determined as 60 nM.

As to `Cc1nnc(CN2CN(C3c4ccccc4CCc4ccccc43)n3ccc(=O)c(O)c3C2=O)o1` [Reference example 256], the concentration for a half-maximal effect (EC50) was found to be 400 nM.

Consider `CC(=O)OCCN1CN(C2c3ccccc3CSc3c(Cl)cccc32)n2ccc(=O)c(O)c2C1=O` (centres unmarked) [Reference example 359], for which the EC50 came to 80 nM.

On to `COCCN1C[C@H](C(c2ccccc2)c2ccccc2)n2cc(N)c(=O)c(O)c2C1=O` [Example 56], for which the concentration giving a half-maximal response (EC50) was 3860 nM.

With `Cc1cccc2c1CSc1c(Cl)cccc1[C@H]2N1CN([C@H](C)C(F)(F)F)C(=O)c2c(O)c(=O)ccn21` [Reference example 612], the EC50 turned out to be 13 nM.

Consider `C[C@@H](N1CN([C@@H]2c3ccccc3SCc3c(Cl)cccc32)n2ccc(=O)c(O)c2C1=O)C(F)(F)F` [Reference example 417], for which the EC50 is 3 nM.

Turning to `CN1C(=O)c2c(O)c(=O)c(C(=O)O)cn2C[C@H]1C(c1ccccc1)c1ccccc1` [Example 43], the concentration giving a half-maximal response (EC50) was determined as 1410 nM.

With `C[C@@H](N1CN([C@H]2c3ccccc3CSc3c(F)cccc32)n2ccc(=O)c(O)c2C1=O)C(F)(F)F` [Reference example 444], the concentration giving a half-maximal response (EC50) was found to be 3 nM.

Regarding `C[C@H](CO)N1CN(C2c3ccccc3CSc3ccccc32)n2ccc(=O)c(O)c2C1=O` (some centres unmarked) [Reference example 373], the EC50 came to 50 nM.

As to `Cc1cccc2c1SCc1ccccc1C2N1CN(C(C)C)C(=O)c2c(O)c(=O)ccn21` (centres unmarked) [Reference example 356], the EC50 was 20 nM.

`CC(C)C1N(CCO)C(=O)c2c(O)c(=O)ccn2N1C1c2ccccc2CCc2ccccc21` (centres unmarked) [Reference example 553]: the concentration giving a half-maximal response (EC50) came to 30 nM.

Turning to `COCC(COC)N1CN(C2c3ccccc3CCc3ccccc32)n2ccc(=O)c(O)c2C1=O` [Reference example 272], the EC50 was determined as 30 nM.

Take `COCCN1CN(C2c3ccccc3CSc3c(F)cccc32)n2ccc(=O)c(O)c2C1=O` (centres unmarked) [Reference example 336]: the concentration giving a half-maximal response (EC50) worked out at 70 nM.

As for `C[C@@H](N1CN([C@H]2c3cccc(F)c3CSc3c(F)cccc32)n2ccc(=O)c(O)c2C1=O)C(F)(F)F` [Reference example 469], the EC50 is 4 nM.

As for `C[C@@H](N1CN([C@@H]2c3ccccc3SCc3cccc(F)c32)n2ccc(=O)c(O)c2C1=O)C(F)(F)F` [Reference example 456], the EC50 worked out at 4 nM.

Take `COCCN1C[C@H](C(c2ccccc2)c2ccccc2)n2cc(Br)c(=O)c(O)c2C1=O` [Example 63]: the EC50 is 2000 nM.

`O=C1c2c(O)c(=O)ccn2N([C@H]2c3ccccc3CSc3c(F)cccc32)CN1[C@H](CO)C(F)(F)F` [Reference example 611]: the EC50 was 43 nM.

On to `C[C@@H](N1CN(C2c3ccccc3CSc3cc(F)ccc32)n2ccc(=O)c(O)c2C1=O)C(F)(F)F` (some centres unmarked) [Reference example 344], for which the EC50 stood at 9 nM.

Take `O=C1c2c(O)c(=O)ccn2N(C2c3ccccc3CSc3ccccc32)CN1C1CCC(F)(F)CC1` (centres unmarked) [Reference example 313]: the concentration for a half-maximal effect (EC50) was 50 nM.

`COCCN1CN(Cc2ccccc2-c2ccccc2)n2ccc(=O)c(O)c2C1=O` [Example 99]: the 50% effective concentration (EC50) worked out at 2000 nM.

For `C[C@@H](N1CN(C2c3ccccc3CSc3ccc(F)cc32)n2ccc(=O)c(O)c2C1=O)C(F)(F)F` (some centres unmarked) [Reference example 345], the half-maximal effective concentration (EC50) is 8 nM.

For `C[C@@H](N1CN([C@H]2c3ccc(F)cc3CSc3c(F)cccc32)n2ccc(=O)c(O)c2C1=O)C(F)(F)F` [Reference example 470], the EC50 stood at 3 nM.

In the case of `CN1CN(C2c3ccccc3CSc3cc(Cl)ccc32)n2ccc(=O)c(O)c2C1=O` (centres unmarked) [Reference example 348], the concentration giving a half-maximal response (EC50) came out at 80 nM.

For `COCCN1C[C@H](C(c2ccccc2)c2ccccc2)n2cc(OC)c(=O)c(O)c2C1=O` [Example 62], the 50% effective concentration (EC50) worked out at 1680 nM.

Turning to `C[C@@H](N1CN([C@H]2c3ccccc3CSc3ccc(F)cc32)n2ccc(=O)c(O)c2C1=O)C(F)(F)F` [Reference example 448], the concentration for a half-maximal effect (EC50) amounted to 8 nM.

Turning to `COCCN1CN(C(c2ccccc2)c2ccccc2)n2cc(C(=O)O)c(=O)c(O)c2C1=O` [Example 94], the EC50 was found to be 1470 nM.

Take `C[C@@H](N1CN([C@@H]2c3ccccc3SCc3c(Br)cccc32)n2ccc(=O)c(O)c2C1=O)C(F)(F)F` [Reference example 463]: the half-maximal effective concentration (EC50) is 5 nM.

In the case of `CC(C)N1CN(C2c3ccccc3COc3c(F)cccc32)n2ccc(=O)c(O)c2C1=O` (centres unmarked) [Reference example 403], the concentration giving a half-maximal response (EC50) worked out at 70 nM.

Consider `O=C1c2c(O)c(=O)ccn2N(C2c3ccccc3CCc3ccccc32)CN1Cc1ncns1` [Reference example 271], for which the concentration for a half-maximal effect (EC50) turned out to be 102 nM.

Take `CC(C)N1CN(C2c3ccccc3CSc3cc(F)ccc32)n2ccc(=O)c(O)c2C1=O` (centres unmarked) [Reference example 352]: the EC50 stood at 20 nM.

Consider `C[C@H](N1CN([C@H]2c3ccc(F)cc3CSc3ccccc32)n2ccc(=O)c(O)c2C1=O)C(F)(F)F` [Reference example 460], for which the EC50 was 9 nM.
